Converted amounts (≈) assume the structure as drawn.
Legend:
Staph. aureus 20424 = experiment: MIC, agar-dilution method in Mueller-Hinton agar; assay type: cell-based; conditions: Staphylococcus aureus, Erythromycin resistant
Text: (§1) Compound M901809 and its acid hydrolysis product M901809H are active against gram-positive bacteria.
a = Erythromycin resistant

Ent. faecium van R1 = experiment: MIC, agar-dilution method in Mueller-Hinton agar; assay type: cell-based; conditions: Enterococcus faecium, VANR1
Text: as §1
(§2) c = Teicoplanin resistant
d = Vancomycin resistant

Solubility = assay type: physicochemical
Staph. aureus C 31153 = experiment: MIC, agar-dilution method in Mueller-Hinton agar; assay type: cell-based; conditions: Staphylococcus aureus, C31153, methicillin resistant
Text: as §1
(§3) Strains 5 to 26 are methicillin resistant staphylococci.

Staph. aureus 706 = experiment: MIC, agar-dilution method in Mueller-Hinton agar; assay type: cell-based; conditions: Staphylococcus aureus, methicillin resistant
Text: as §1, §3

Staph. aureus 789 = experiment: MIC, agar-dilution method in Mueller-Hinton agar; assay type: cell-based; conditions: Staphylococcus aureus, methicillin resistant
Text: as §1, §3

Staph. aureus Co. 1 = experiment: MIC, agar-dilution method in Mueller-Hinton agar; assay type: cell-based; conditions: Staphylococcus aureus, methicillin resistant
Text: as §1, §3

Staph. haemolyticus 712 = experiment: MIC, agar-dilution method in Mueller-Hinton agar; assay type: cell-based; conditions: Staphylococcus haemolyticus
Text: as §1, §3

Staph. epidermidis 607 = experiment: MIC, agar-dilution method in Mueller-Hinton agar; assay type: cell-based; conditions: Staphylococcus epidermidis, methicillin resistant
Text: as §1, §3

Staph. aureus 694 = experiment: MIC, agar-dilution method in Mueller-Hinton agar; assay type: cell-based; conditions: Staphylococcus aureus, methicillin resistant
Text: as §1, §3

Staph. aureus 690 = experiment: MIC, agar-dilution method in Mueller-Hinton agar; assay type: cell-based; conditions: Staphylococcus aureus, methicillin resistant
Text: as §1, §3

Staph. epidermidis 178 = experiment: MIC, agar-dilution method in Mueller-Hinton agar; assay type: cell-based; conditions: Staphylococcus epidermidis, methicillin resistant
Text: as §1, §3

Staph. aureus 710 = experiment: MIC, agar-dilution method in Mueller-Hinton agar; assay type: cell-based; conditions: Staphylococcus aureus, methicillin resistant
Text: as §1, §3

Staph. aureus 011UC5 = experiment: MIC, agar-dilution method in Mueller-Hinton agar; assay type: cell-based; conditions: Staphylococcus aureus, methicillin resistant
Text: as §1, §3

Staph. aureus E 88 = experiment: MIC, agar-dilution method in Mueller-Hinton agar; assay type: cell-based; conditions: Staphylococcus aureus, E88, methicillin resistant
Text: as §1, §3

Staph. epidermidis 2 Tub = experiment: MIC, agar-dilution method in Mueller-Hinton agar; assay type: cell-based; conditions: Staphylococcus epidermidis, methicillin resistant
Text: as §1, §3

Staph. epidermidis 109 = experiment: MIC, agar-dilution method in Mueller-Hinton agar; assay type: cell-based; conditions: Staphylococcus epidermidis, methicillin resistant
Text: as §1, §3

Staph. epidermidis 291 = experiment: MIC, agar-dilution method in Mueller-Hinton agar; assay type: cell-based; conditions: Staphylococcus epidermidis, methicillin resistant
Text: as §1, §3

Staph. aureus E 121 = experiment: MIC, agar-dilution method in Mueller-Hinton agar; assay type: cell-based; conditions: Staphylococcus aureus, E121, methicillin resistant
Text: as §1, §3

Staph. aureus 725 = experiment: MIC, agar-dilution method in Mueller-Hinton agar; assay type: cell-based; conditions: Staphylococcus aureus, methicillin resistant
Text: as §1, §3

Staph. haemolyticus 809 = experiment: MIC, agar-dilution method in Mueller-Hinton agar; assay type: cell-based; conditions: Staphylococcus haemolyticus
Text: as §1, §3

Staph. aureus 722 = experiment: MIC, agar-dilution method in Mueller-Hinton agar; assay type: cell-based; conditions: Staphylococcus aureus, methicillin resistant
Text: as §1, §3

Staph. aureus 712 = experiment: MIC, agar-dilution method in Mueller-Hinton agar; assay type: cell-based; conditions: Staphylococcus aureus, methicillin resistant
Text: as §1, §3

streptococci = experiment: treatment of experimental animals infected with streptococci; assay type: in vivo
gram-positive bacteria = experiment: activity against gram-positive bacteria; assay type: cell-based
Text: as §1

staphylococci = experiment: treatment of experimental animals infected with staphylococci; assay type: in vivo
Ent. faecalis 21777 = experiment: MIC, agar-dilution method in Mueller-Hinton agar; assay type: cell-based; conditions: Enterococcus faecalis
Text: as §1

Ent. faecalis D 65 = experiment: MIC, agar-dilution method in Mueller-Hinton agar; assay type: cell-based; conditions: Enterococcus faecalis, D65
Text: as §1

Ent. faecalis 782 = experiment: MIC, agar-dilution method in Mueller-Hinton agar; assay type: cell-based; conditions: Enterococcus faecalis
Text: as §1

Ent. faecalis Eder = experiment: MIC, agar-dilution method in Mueller-Hinton agar; assay type: cell-based; conditions: Enterococcus faecalis
Text: as §1

Staph. aureus 20240 = experiment: MIC, agar-dilution method in Mueller-Hinton agar; assay type: cell-based; conditions: Staphylococcus aureus, lactam resistant
Text: as §1

Staph. aureus 3066 = experiment: MIC, agar-dilution method in Mueller-Hinton agar; assay type: cell-based; conditions: Staphylococcus aureus
Text: as §1

Ent. faecalis 3903 = experiment: MIC, agar-dilution method in Mueller-Hinton agar; assay type: cell-based; conditions: Enterococcus faecalis
Text: as §1

Staph. aureus 209 P = experiment: MIC, agar-dilution method in Mueller-Hinton agar; assay type: cell-based; conditions: Staphylococcus aureus
Text: as §1

Ent. faecalis UD8b = experiment: MIC, agar-dilution method in Mueller-Hinton agar; assay type: cell-based; conditions: Enterococcus faecalis
Text: as §1

Ent. faecalis 734 = experiment: MIC, agar-dilution method in Mueller-Hinton agar; assay type: cell-based; conditions: Enterococcus faecalis
Text: as §1

Ent. faecalis 26777 = experiment: MIC, agar-dilution method in Mueller-Hinton agar; assay type: cell-based; conditions: Enterococcus faecalis
Text: as §1

Staph. epidermidis 825 = experiment: MIC, agar-dilution method in Mueller-Hinton agar; assay type: cell-based; conditions: Staphylococcus epidermidis, Teicoplanin resistant, methicillin resistant
Text: as §1, §2, §3

Staph. epidermidis 823 = experiment: MIC, agar-dilution method in Mueller-Hinton agar; assay type: cell-based; conditions: Staphylococcus epidermidis, Teicoplanin resistant, methicillin resistant
Text: as §1, §2, §3

SMILES: CCCC1Cc2cc3c(c(O)c2C(=O)O1)-c1c(c(OC)c2oc4c(OC5CC(O)C(OC6CC(O)C(OC7CC(OC)C(O)C(C)O7)C(C)O6)C(C)O5)ccc(O)c4c(=O)c2c1O)C(O)C3O (centres unmarked) [M901809]
- MIC (Staph. aureus 20424): 0.2 µg/mL (≈ 0.213 µM)
- MIC (Ent. faecium van R1): 1.6 µg/mL (≈ 1.7 µM)
- Solubility (Solubility; in CH2Cl2): Very soluble
- Solubility (Solubility; in CH3CN): Poor to moderate
- Solubility (Solubility; in CHCl3): Very soluble
- Solubility (Solubility; in DMSO): Very soluble
- Solubility (Solubility; in H2O): Insoluble
- Solubility (Solubility; in MeOH): Poor to moderate
- Solubility (Solubility; in ethyl acetate): Poor to moderate
- Solubility (Solubility; in hexane): Insoluble
- Solubility (Solubility; in petroleum ether (40-60° C.)): Insoluble
- MIC (Staph. aureus C 31153): 0.1 µg/mL (≈ 0.106 µM)
- MIC (Staph. aureus 706): 0.2 µg/mL (≈ 0.213 µM)
- MIC (Staph. aureus 789): 0.1 µg/mL (≈ 0.106 µM)
- MIC (Staph. aureus Co. 1): 0.1 µg/mL (≈ 0.106 µM)
- MIC (Staph. haemolyticus 712): 0.2 µg/mL (≈ 0.213 µM)
- MIC (Staph. epidermidis 607): 0.4 µg/mL (≈ 0.425 µM)
- MIC (Staph. aureus 694): 0.2 µg/mL (≈ 0.213 µM)
- MIC (Staph. aureus 690): 0.2 µg/mL (≈ 0.213 µM)
- MIC (Staph. epidermidis 178): 0.2 µg/mL (≈ 0.213 µM)
- MIC (Staph. aureus 710): 0.2 µg/mL (≈ 0.213 µM)
- MIC (Staph. aureus 011UC5): 0.1 µg/mL (≈ 0.106 µM)
- MIC (Staph. aureus E 88): 0.2 µg/mL (≈ 0.213 µM)
- MIC (Staph. epidermidis 2 Tub): 0.2 µg/mL (≈ 0.213 µM)
- MIC (Staph. epidermidis 109): 0.4 µg/mL (≈ 0.425 µM)
- MIC (Staph. epidermidis 291): 0.2 µg/mL (≈ 0.213 µM)
- MIC (Staph. aureus E 121): 0.2 µg/mL (≈ 0.213 µM)
- MIC (Staph. aureus 725): 0.1 µg/mL (≈ 0.106 µM)
- MIC (Staph. haemolyticus 809): 0.4 µg/mL (≈ 0.425 µM)
- MIC (Staph. aureus 722): 0.2 µg/mL (≈ 0.213 µM)
- MIC (Staph. aureus 712): 0.2 µg/mL (≈ 0.213 µM)
- activity in treatment of infected experimental animals (streptococci): active
- activity against gram-positive bacteria (gram-positive bacteria): active
- activity in treatment of infected experimental animals (staphylococci): active
- MIC (Ent. faecalis 21777): 0.4 µg/mL (≈ 0.425 µM)
- MIC (Ent. faecalis D 65): 1.6 µg/mL (≈ 1.7 µM)
- MIC (Ent. faecalis 782): 0.4 µg/mL (≈ 0.425 µM)
- MIC (Ent. faecalis Eder): 0.4 µg/mL (≈ 0.425 µM)
- MIC (Staph. aureus 20240): 0.2 µg/mL (≈ 0.213 µM)
- MIC (Staph. aureus 3066): 0.2 µg/mL (≈ 0.213 µM)
- MIC (Ent. faecalis 3903): 0.4 µg/mL (≈ 0.425 µM)
- MIC (Staph. aureus 209 P): 0.1 µg/mL (≈ 0.106 µM)
- MIC (Ent. faecalis UD8b): 0.8 µg/mL (≈ 0.85 µM)
- MIC (Ent. faecalis 734): 0.4 µg/mL (≈ 0.425 µM)
- MIC (Ent. faecalis 26777): 0.4 µg/mL (≈ 0.425 µM)
- MIC (Staph. epidermidis 825): 0.8 µg/mL (≈ 0.85 µM)
- MIC (Staph. epidermidis 823): 0.4 µg/mL (≈ 0.425 µM)
